# Measurements published in patent US20230202995A1, “HIGH EFFICIENT SEX PHEROMONE LURES FOR ECTROPIS OBLIQUE AND ECTROPIS GRISESCENS” (CHANGZHOU UNIVERSITY, priority 2021, published 2023).
# System: E. oblique
# Test: Field trapping test with sex pheromone lures in traps, tea plantation
# Assay type: in vivo, Ectropis oblique
# Conditions: lures with (3Z,6Z,9Z)-octadecatriene
# Description: Embodiment 9: Field trapping tests were carried out at a tea plantation of Jintan Xinpin Tea Industry Co., Ltd., Changzhou City, Jiangsu Province. Sex pheromone lures used in the tests were made according to the schemes described in Embodiments 3-8, and a blank control was a lure made of n-hexane. The sex pheromone lure was used with a trap, each treatment process was repeated 3 times, and the number of trapped male pests in one month was counted.
# (§1) Embodiment 50: Field trapping tests were carried out at the tea plantation of Jintan Xinpin Tea Industry Co., Ltd., Changzhou City, Jiangsu Province. Sex pheromone lures used in the test were made according to the schemes described in Embodiments 10-49, and a blank control was the lures made of n-hexane. The sex pheromone lures were used with a trap, each treatment process was repeated for 3 times, and the number of trapped insects in one month was counted.
# as §1, with “53:” for “50:”, “51-52,” for “10-49,”, “in Embodiment 12.” for “of n-hexane.”, “lure was” for “lures were”, “repeated” for “repeated for”
# as §1, with “54:” for “50:”, “Embodiment 12.” for “Embodiments 10-49, and a blank control was the lures made of n-hexane.”, “lure was” for “lures were”
row,Compound,Trapping effect on E. oblique (in words)
1,"CC/C=C\C/C=C\C[C@H]1O[C@H]1CCCCCCCC [(3Z,6Z,9R,10S)-9,10-epoxy-octadecadiene]",no trapping effect at all
2,"CC/C=C\C[C@H]1O[C@H]1C/C=C\CCCCCCCC [(3Z,9Z,6R,7S)-6,7-epoxy-octadecadiene]",certain trapping capacity
3,"CC/C=C\C/C=C\C[C@@H]1O[C@@H]1CCCCCCCC [(3Z,6Z,9S,10R)-9,10-epoxy-octadecadiene]",no trapping effect at all
4,"CCCCCCCC/C=C\C/C=C\C[C@H]1O[C@H]1CC [(6Z,9Z,3S,4R)-3,4-epoxy-octadecadiene]",no trapping effect at all
5,"CCCCCCCC/C=C\C/C=C\C[C@@H]1O[C@@H]1CC [(6Z,9Z,3R,4S)-3,4-epoxy-octadecadiene]",no trapping effect at all
6,"CC/C=C\C[C@@H]1O[C@@H]1C/C=C\CCCCCCCC [(3Z,9Z,6S,7R)-6,7-epoxy-octadecadiene]",certain trapping capacity
